Measured values: patent US20260240844A1, “INHIBITORS OF CHD1L AND USES THEREOF” (The Regents of the University of Colorado, a body corporate, priority 2023, published 2026)
Read-outs that look alike come from different tables or passages of the source.

What was measured:
Format in all cases: cell-based
HCT116 Parental cells = assay: HCT116 Parental cell viability, combination with chemotherapy; settings: Homo sapiens, HCT-116, HCT116 cells, read-out: IC50 5-FU
[1] = tested on: γ-H2AX in SW620 or SUM149PT cells; assay: DNA damage (γ-H2AX) immunofluorescence, Example 1
Source text: The percentage of DNA damage for each single agent dose and combination was plotted on a contour map (FIG. 6A). Each shade on the contour map represents a range of % DNA damage where dark orange is 100% and white is 0% DNA damage.

HCT116 tumor organoids = assay: Viability of isolated EMT phenotype HCT116 tumor organoids; settings: Homo sapiens, HCT-116, 72 h

O=c1[nH]cc(F)c(=O)[nH]1 [Compound 5-FU, 5-fluorouracil]
IC50 (HCT116 Parental cells; Compound 11 0 μM): 95.7 µM
IC50 (HCT116 Parental cells; Compound 11 2.5 μM): 192 µM
IC50 (HCT116 Parental cells; Compound 11 3 μM): 63.4 µM
IC50 (HCT116 Parental cells; Compound 11 3.5 μM): 43.2 µM
IC50 (HCT116 Parental cells; Compound 12 0 μM): 103 µM
IC50 (HCT116 Parental cells; Compound 12 5 μM): 34.6 µM
IC50 (HCT116 Parental cells; Compound 12 6 μM): 11.5 µM

Cc1cc(Nc2ccc(NC(=O)Cc3cc(Br)cs3)cc2)nc(N2CCCC2)n1 [Compound 6.11, 2-(4-bromothiophen-2-yl)-N-(4-((6-methyl-2-(pyrrolidin-1-yl)pyrimidin-4-yl)amino)phenyl)acetamide]
mean synergy score (Bliss), DNA damage ([1]; combined with 5FU): 23
mean synergy score (Bliss), DNA damage ([1]; combined with SN38): 24
DNA damage (γ-H2AX) compared to vehicle ([1]; single agent): no significant DNA damage

O=C(c1cc(Cc2n[nH]c(=O)c3ccccc23)ccc1F)N1CCN(C(=O)C2CC2)CC1 [olaparib]
IC50 (HCT116 tumor organoids; combined with Compound 6, read-out: IC50 olaparib): ~30 µM
IC50 (HCT116 tumor organoids; olaparib alone): ~600 µM
